Reference: ChEMBL document CHEMBL3232996, “Synthesis and biological evaluation of novel (123)I-labeled 4-(4-iodophenyl)butanoyl-L-prolyl-(2S)-pyrrolidines for imaging prolyl oligopeptidase in vivo” (Eur J Med Chem, 2014)

Columns and labels:
[1] = biological target: Prolyl endopeptidase (Mus musculus, UniProt Q9QUR6); test: Competitive inhibition of mouse brain prolyl oligopeptidase; type: tissue-based
[2] = biological target: Prolyl endopeptidase (Sus scrofa, UniProt P23687); test: Inhibition of porcine prolyl oligopeptidase using Z-Gly-Pro-AMC as substrate after 60 mins by double-reciprocal plot analysis; settings: read-out: Ki(app)
Sequence of Prolyl endopeptidase (Sus scrofa, UniProt P23687) (P23687 whole entry): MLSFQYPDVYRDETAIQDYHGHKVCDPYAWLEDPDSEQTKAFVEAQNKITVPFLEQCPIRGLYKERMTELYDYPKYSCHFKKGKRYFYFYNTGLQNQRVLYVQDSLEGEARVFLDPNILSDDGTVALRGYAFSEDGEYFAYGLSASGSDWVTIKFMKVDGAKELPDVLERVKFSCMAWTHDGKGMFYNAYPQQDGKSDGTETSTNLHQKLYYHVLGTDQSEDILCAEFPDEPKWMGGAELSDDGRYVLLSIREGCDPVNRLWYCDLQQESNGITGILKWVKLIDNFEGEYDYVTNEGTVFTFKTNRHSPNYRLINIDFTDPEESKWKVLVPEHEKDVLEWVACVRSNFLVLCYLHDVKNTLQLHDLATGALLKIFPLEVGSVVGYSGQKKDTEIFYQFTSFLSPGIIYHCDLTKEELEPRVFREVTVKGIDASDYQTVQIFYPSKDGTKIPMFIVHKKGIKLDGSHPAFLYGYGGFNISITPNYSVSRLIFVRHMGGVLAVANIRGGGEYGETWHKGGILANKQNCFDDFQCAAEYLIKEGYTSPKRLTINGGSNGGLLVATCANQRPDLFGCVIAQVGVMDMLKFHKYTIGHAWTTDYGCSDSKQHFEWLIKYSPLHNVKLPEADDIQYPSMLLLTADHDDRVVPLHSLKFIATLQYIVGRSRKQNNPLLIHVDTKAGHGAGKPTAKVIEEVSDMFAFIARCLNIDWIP

Sequence of Prolyl endopeptidase (Mus musculus, UniProt Q9QUR6) (Q9QUR6 whole entry): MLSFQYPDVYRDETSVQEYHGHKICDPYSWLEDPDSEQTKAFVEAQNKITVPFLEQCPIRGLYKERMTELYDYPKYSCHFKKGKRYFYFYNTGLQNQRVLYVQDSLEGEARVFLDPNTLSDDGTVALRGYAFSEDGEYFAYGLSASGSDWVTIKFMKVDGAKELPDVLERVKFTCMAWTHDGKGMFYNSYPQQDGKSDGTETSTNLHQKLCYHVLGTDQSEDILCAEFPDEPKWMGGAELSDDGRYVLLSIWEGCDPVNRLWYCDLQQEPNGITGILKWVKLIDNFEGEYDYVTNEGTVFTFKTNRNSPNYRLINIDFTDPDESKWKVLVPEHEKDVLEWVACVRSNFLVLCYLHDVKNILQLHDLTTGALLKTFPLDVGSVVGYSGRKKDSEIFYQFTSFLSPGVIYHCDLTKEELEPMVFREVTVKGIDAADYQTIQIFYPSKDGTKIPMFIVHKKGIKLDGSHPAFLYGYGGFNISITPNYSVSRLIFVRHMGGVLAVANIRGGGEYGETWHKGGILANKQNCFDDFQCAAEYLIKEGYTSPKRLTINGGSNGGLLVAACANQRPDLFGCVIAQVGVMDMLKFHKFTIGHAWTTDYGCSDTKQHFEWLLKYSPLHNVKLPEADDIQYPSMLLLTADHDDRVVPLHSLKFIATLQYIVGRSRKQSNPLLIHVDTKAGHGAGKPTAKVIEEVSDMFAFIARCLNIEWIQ

Row | IC50 [1] | Ki [2] | SMILES
1 | 3.1 nM |  | [11CH3]Nc1ccc(CCCC(=O)N2CCC[C@H]2C(=O)N2CCCC2)cc1
2 |  | 22 nM | O=C([C@@H]1CCCN1C(=O)CCCc1ccc(I)cc1)N1CCCC1
3 |  | 4.2 nM | N#C[C@@H]1CCCN1C(=O)[C@@H]1CCCN1C(=O)CCCc1ccc(I)cc1
